In patent publication US20260102407A1, “TREATMENT METHODS” (priority 2020, published 2026):
Values joined by “and” are separate entries in the source; they are usually repeats but may differ in a detail not shown here. Equal values may be shown once.

Columns and labels:
VEGF-A165 = assay: Immunohistochemical staining of rat retina, VEGF-A165; assay type: in vivo
Excerpt: (§1) Rat choroidal laser injury model. Male Brown Norway pigmented rats (8-14 week-old) were anesthetized by an intramuscular injection of Rompun® (xylazine)/Imalgene® (ketamine). Pupils were dilated by instillation of one drop of 0.5% tropicamide before laser burn. Six burns were created in both eyes on Day 0 by applying 170 mW of 532 nm laser light (Viridis laser, Quantel, France) on 75 μm spots around the optic nerve, between the main retinal vessel branches, for 0.1s, through the slit lamp and contact lens. Production of a bubble at the time of laser application confirmed the rupture of Bruch's membrane. […] After anaesthesia, 10% sodium fluorescein (250 μl/100 g body weight) was injected subcutaneously, and ocular fluorescence was recorded 10 min after dye injection. Fluorescein leakage was evaluated on Days 14 and 21 in the angiograms by two examiners masked to the study groups and graded for fluorescein intensity as follows: score 0: no leakage; 1: slightly stained; 2: moderately stained; 3: strongly stained.
(§2) Immunohistochemical staining of rat retina. […] IOD of positive staining (red chromogen) was assessed for CD31, VEGF-A165, pERK, FosB and VCAM-1 using Image-Pro Plus software (Cybernetics, Bethesda, MD). IOD in IPL and INL was quantified for CD31; OPL to OS for VEGF-A165; INL to ONL for pERK; GCL to OS for FosB; OLM for VCAM-1, using Image-Pro Plus. […]

pERK = assay: Immunohistochemical staining of rat retina, pERK; assay type: in vivo; settings: lasered rat retinas
Excerpt: as §1, §2

Balb/c mice = assay: Toxicology, histopathology after intraperitoneal, intraarticular or gavage administration; settings: for Eye (left and right), severity grade / Heart, severity grade / Kidney (left and right): inflammation, renal pelvis, severity grade / Liver: inflammation, peritoneal, severity grade / Liver: mineralisation, subcapsular, severity grade / Lung: osseous metaplasia, severity grade / Spleen, severity grade / Kidney (left and right): inflammation, interstitial, severity grade / Liver: inflammation, parenchymal, severity grade: Mouse 1-5
Description: Toxicology. Female Balb/c mice (8-9 week-old) were given 3 or 30 mg/kg BT2 (DMSO vehicle) via intraperitoneal injection (Days 0 and 5 in DMSO), oral gavage (Days 0-4 in DMSO/methylcellulose) or intraarticular injection (Day 0 in DMSO). Mice were euthanized after 8-11 d. Tissues was fixed in 10% formalin, processed routinely, sectioned at 4 μm and stained with hematoxylin and eosin.

[1] = Gavage BT2 3 mg/kg (Days 0-4), 3 mg/kg
[2] = IA BT2 3 mg/kg (Day 0), 3 mg/kg
[3] = IP BT2 3 mg/kg (Days 0 and 5), 3 mg/kg
[4] = IP BT2 30 mg/kg (Days 0 and 5), 30 mg/kg

With `CCOC(=O)Nc1ccc2c(c1)C(=O)N(CC)c1ccccc1O2` [BT2, (10-ethyl-11-oxo-10,11-dihydro-dibenzo[b,f][1,4]oxazepin-2-yl)-carbamic acid ethyl ester] the “inducible expression of VEGF-A165 in retina” value (VEGF-A165; lasered rat eyes 21 days after injury) was “inhibited the inducible expression of VEGF-A165”, the “VEGF-A165 staining gradient relative to the wound” value (VEGF-A165; lasered rat eyes, 100 μm boxed increments) was “inhibited by BT2” and the “inducible pERK staining in the INL, OPL and ONL” value (pERK) was “suppressed inducible pERK staining”. The “histopathological evidence of toxicity” value (Balb/c mice; Balb/c mice, 3 or 30 mg/kg, intraperitoneal, intraarticular or oral gavage) was “no histopathological evidence of toxic damage”, the “treated mice whose kidneys contained infrequent inflammatory foci” value (Balb/c mice; Balb/c mice, all BT2 groups, control one of 5) was 4 of 30 and the “Eye (left and right), severity grade” value (Balb/c mice; Gavage BT2 3 mg/kg (Days 0-4)) was 0. The “Heart, severity grade” value (Balb/c mice; Gavage BT2 3 mg/kg (Days 0-4)) was 0, the “Kidney (left and right): inflammation, renal pelvis, severity grade” value (shortened to “Kidney … renal pelvis, severity grade”) (Balb/c mice; Gavage BT2 3 mg/kg (Days 0-4)) was 0 and the “Liver: inflammation, peritoneal, severity grade” value (from here on “Liver: inflammation, peritoneal”) (Balb/c mice; Gavage BT2 3 mg/kg (Days 0-4)) was 0. The “Liver: mineralisation, subcapsular, severity grade” value (“Liver: mineralisation, subcapsular” for short) (Balb/c mice; Gavage BT2 3 mg/kg (Days 0-4)) was 0, the “Lung: osseous metaplasia, severity grade” value (Balb/c mice; Gavage BT2 3 mg/kg (Days 0-4)) was 0 and the “Spleen, severity grade” value (Balb/c mice; Gavage BT2 3 mg/kg (Days 0-4)) was 0. For the same molecule, the “Kidney (left and right): inflammation, interstitial, severity grade” value (“Kidney … interstitial, severity grade” below) (Balb/c mice; [1]) was 0 and 1, the “Liver: inflammation, parenchymal, severity grade” value (“Liver: inflammation, parenchymal” below) (Balb/c mice; [1]) was 0 and 1 and the “Eye (left and right), severity grade” value (Balb/c mice; Gavage BT2 30 mg/kg (Days 0-4)) was 0. For the same molecule, the “Heart, severity grade” value (Balb/c mice; Gavage BT2 30 mg/kg (Days 0-4)) was 0, the “Kidney … interstitial, severity grade” value (Balb/c mice; Gavage BT2 30 mg/kg (Days 0-4)) was 0 and the “Kidney … renal pelvis, severity grade” value (Balb/c mice; Gavage BT2 30 mg/kg (Days 0-4)) was 0. The “Liver: inflammation, peritoneal” value (Balb/c mice; Gavage BT2 30 mg/kg (Days 0-4)) was 0, the “Liver: mineralisation, subcapsular” value (Balb/c mice; Gavage BT2 30 mg/kg (Days 0-4)) was 0 and the “Lung: osseous metaplasia, severity grade” value (Balb/c mice; Gavage BT2 30 mg/kg (Days 0-4)) was 0. The “Spleen, severity grade” value (Balb/c mice; Gavage BT2 30 mg/kg (Days 0-4)) was 0, the “Liver: inflammation, parenchymal” value (Balb/c mice; Gavage BT2 30 mg/kg (Days 0-4), 30 mg/kg) was 1 and 0 and the “Eye (left and right), severity grade” value (Balb/c mice; IA BT2 3 mg/kg (Day 0)) was 0. For the same molecule, the “Heart, severity grade” value (Balb/c mice; IA BT2 3 mg/kg (Day 0)) was 0, the “Liver: inflammation, peritoneal” value (Balb/c mice; IA BT2 3 mg/kg (Day 0)) was 0 and the “Liver: mineralisation, subcapsular” value (Balb/c mice; IA BT2 3 mg/kg (Day 0)) was 0. The “Lung: osseous metaplasia, severity grade” value (Balb/c mice; IA BT2 3 mg/kg (Day 0)) was 0, the “Spleen, severity grade” value (Balb/c mice; IA BT2 3 mg/kg (Day 0)) was 0 and the “Kidney … interstitial, severity grade” value (Balb/c mice; [2]) was 0 and 1. For the same molecule, the “Kidney … renal pelvis, severity grade” value (Balb/c mice; [2]) was 2 and 0, the “Liver: inflammation, parenchymal” value (Balb/c mice; [2]) was 1 and 0 and the “Eye (left and right), severity grade” value (Balb/c mice; IA BT2 30 mg/kg (Day 0)) was 0. For the same molecule, the “Heart, severity grade” value (Balb/c mice; IA BT2 30 mg/kg (Day 0)) was 0, the “Kidney … interstitial, severity grade” value (Balb/c mice; IA BT2 30 mg/kg (Day 0)) was 0 and the “Kidney … renal pelvis, severity grade” value (Balb/c mice; IA BT2 30 mg/kg (Day 0)) was 0. For the same molecule, the “Liver: inflammation, parenchymal” value (Balb/c mice; IA BT2 30 mg/kg (Day 0)) was 1, the “Liver: inflammation, peritoneal” value (Balb/c mice; IA BT2 30 mg/kg (Day 0)) was 0 and the “Liver: mineralisation, subcapsular” value (Balb/c mice; IA BT2 30 mg/kg (Day 0)) was 0. The “Lung: osseous metaplasia, severity grade” value (Balb/c mice; IA BT2 30 mg/kg (Day 0)) was 0, the “Spleen, severity grade” value (Balb/c mice; IA BT2 30 mg/kg (Day 0)) was 0 and the “Eye (left and right), severity grade” value (Balb/c mice; IP BT2 3 mg/kg (Days 0 and 5)) was 0. For the same molecule, the “Heart, severity grade” value (Balb/c mice; IP BT2 3 mg/kg (Days 0 and 5)) was 0, the “Kidney … interstitial, severity grade” value (Balb/c mice; IP BT2 3 mg/kg (Days 0 and 5)) was 0 and the “Kidney … renal pelvis, severity grade” value (Balb/c mice; IP BT2 3 mg/kg (Days 0 and 5)) was 0. The “Liver: mineralisation, subcapsular” value (Balb/c mice; IP BT2 3 mg/kg (Days 0 and 5)) was 0, the “Spleen, severity grade” value (Balb/c mice; IP BT2 3 mg/kg (Days 0 and 5)) was 0 and the “Liver: inflammation, parenchymal” value (Balb/c mice; [3]) was 1 and 0. The “Liver: inflammation, peritoneal” value (Balb/c mice; [3]) was 0 and 2 and 1, the “Lung: osseous metaplasia, severity grade” value (Balb/c mice; [3]) was 0 and 1 and the “Eye (left and right), severity grade” value (Balb/c mice; IP BT2 30 mg/kg (Days 0 and 5)) was 0. The “Heart, severity grade” value (Balb/c mice; IP BT2 30 mg/kg (Days 0 and 5)) was 0, the “Kidney … interstitial, severity grade” value (Balb/c mice; IP BT2 30 mg/kg (Days 0 and 5)) was 0 and the “Lung: osseous metaplasia, severity grade” value (Balb/c mice; IP BT2 30 mg/kg (Days 0 and 5)) was 0. The “Spleen, severity grade” value (Balb/c mice; IP BT2 30 mg/kg (Days 0 and 5)) was 0, the “Kidney … renal pelvis, severity grade” value (Balb/c mice; [4]) was 0 and 4 and the “Liver: inflammation, parenchymal” value (Balb/c mice; [4]) was 1 and 2. The “Liver: inflammation, peritoneal” value (Balb/c mice; [4]) was 1 and 2 and the “Liver: mineralisation, subcapsular” value (Balb/c mice; [4]) was 0 and 1.
